Results as given in PubChem BioAssay AID2060349 (Molecular Pharmacology Branch, DTP, NCI, 2025).

System: 762968-020-R-J2-PDC spheroids viability
Experiment: Anticancer human tumor 762968-020-R-J2-PDC patient-derived colon carcinoma cell line growth inhibition [TAK]
Details: spheroids with HUVEC and MSC; for IC50: curve of first compound; for viability, T/C: stronger effect = lower value
How it was run: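 Drug combinations, each paired with TAK-243 or ipatasertib, were tested on multi-cell spheroids of 60% malignant cells, 25% HUVEC and 15% hMSC. Top concentrations were at or near the clinical Cmax (10 microM if undetermined), decreasing by half-log; viability is given as % test/control.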
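Further: spheroids exposed to drug for 7 days before readout.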
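Wherever viability, T/C is given: 100% = DMSO vehicle control wells.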

CC(=O)Nc1cccc(-n2c(=O)n(C3CC3)c(=O)c3c(Nc4ccc(I)cc4F)n(C)c(=O)c(C)c32)c1 + CC(C)NCC(C(=O)N1CCN(c2ncnc3c2C(C)CC3O)CC1)c1ccc(Cl)cc1
IC50 (second compound 0.3 µM): 20.2 nM
IC50 (second compound 0.949 µM): 20.8 nM
IC50 (second compound 3 µM): 23.1 nM
IC50 (second compound 9.49 µM): 17.7 nM
IC50 (second compound 30 µM): 16.2 nM
viability, T/C (second compound 0.3 µM, first compound 94.9 pM): 98.7%
viability, T/C (second compound 0.3 µM, first compound 0.0003 µM): 104%
viability, T/C (second compound 0.3 µM, first compound 0.000949 µM): 91.6%
viability, T/C (second compound 0.3 µM, first compound 0.003 µM): 82.2%
viability, T/C (second compound 0.3 µM, first compound 0.00949 µM): 70.1%
viability, T/C (second compound 0.3 µM, first compound 0.03 µM): 39.7%
viability, T/C (second compound 0.949 µM, first compound 94.9 pM): 92.9%
viability, T/C (second compound 0.949 µM, first compound 0.0003 µM): 98.1%
viability, T/C (second compound 0.949 µM, first compound 0.000949 µM): 91.8%
viability, T/C (second compound 0.949 µM, first compound 0.003 µM): 96%
viability, T/C (second compound 0.949 µM, first compound 0.00949 µM): 74.5%
viability, T/C (second compound 0.949 µM, first compound 0.03 µM): 38.5%
viability, T/C (second compound 3 µM, first compound 94.9 pM): 101%
viability, T/C (second compound 3 µM, first compound 0.0003 µM): 103%
viability, T/C (second compound 3 µM, first compound 0.000949 µM): 97.4%
viability, T/C (second compound 3 µM, first compound 0.003 µM): 90.2%
viability, T/C (second compound 3 µM, first compound 0.00949 µM): 80.2%
viability, T/C (second compound 3 µM, first compound 0.03 µM): 41.1%
viability, T/C (second compound 9.49 µM, first compound 94.9 pM): 96.1%
viability, T/C (second compound 9.49 µM, first compound 0.0003 µM): 99.1%
viability, T/C (second compound 9.49 µM, first compound 0.000949 µM): 95.6%
viability, T/C (second compound 9.49 µM, first compound 0.003 µM): 80.6%
viability, T/C (second compound 9.49 µM, first compound 0.00949 µM): 67.3%
viability, T/C (second compound 9.49 µM, first compound 0.03 µM): 36.3%
viability, T/C (second compound 30 µM, first compound 94.9 pM): 90.3%
viability, T/C (second compound 30 µM, first compound 0.0003 µM): 87.7%
viability, T/C (second compound 30 µM, first compound 0.000949 µM): 80.3%
viability, T/C (second compound 30 µM, first compound 0.003 µM): 71.4%
viability, T/C (second compound 30 µM, first compound 0.00949 µM): 60.9%
viability, T/C (second compound 30 µM, first compound 0.03 µM): 38.8%

CC(C)CC(NC(=O)CNC(=O)c1cc(Cl)ccc1Cl)B1OC(=O)CC(CC(=O)O)(C(=O)O)O1 (stereo not given) + CC(C)NCC(C(=O)N1CCN(c2ncnc3c2C(C)CC3O)CC1)c1ccc(Cl)cc1
IC50 (second compound 0.3 µM): > 100 nM
IC50 (second compound 0.949 µM): > 100 nM
IC50 (second compound 3 µM): > 100 nM
IC50 (second compound 9.49 µM): > 100 nM
IC50 (second compound 30 µM): > 100 nM
viability, T/C (second compound 0.3 µM, first compound 0.000316 µM): 100%
viability, T/C (second compound 0.3 µM, first compound 0.001 µM): 105%
viability, T/C (second compound 0.3 µM, first compound 0.00316 µM): 93.4%
viability, T/C (second compound 0.3 µM, first compound 0.01 µM): 108%
viability, T/C (second compound 0.3 µM, first compound 0.0316 µM): 99.4%
viability, T/C (second compound 0.3 µM, first compound 0.1 µM): 79.5%
viability, T/C (second compound 0.949 µM, first compound 0.000316 µM): 94%
viability, T/C (second compound 0.949 µM, first compound 0.001 µM): 93.8%
viability, T/C (second compound 0.949 µM, first compound 0.00316 µM): 97.1%
viability, T/C (second compound 0.949 µM, first compound 0.01 µM): 103%
viability, T/C (second compound 0.949 µM, first compound 0.0316 µM): 103%
viability, T/C (second compound 0.949 µM, first compound 0.1 µM): 70.6%
viability, T/C (second compound 3 µM, first compound 0.000316 µM): 104%
viability, T/C (second compound 3 µM, first compound 0.001 µM): 102%
viability, T/C (second compound 3 µM, first compound 0.00316 µM): 98.2%
viability, T/C (second compound 3 µM, first compound 0.01 µM): 105%
viability, T/C (second compound 3 µM, first compound 0.0316 µM): 95.2%
viability, T/C (second compound 3 µM, first compound 0.1 µM): 73.4%
viability, T/C (second compound 9.49 µM, first compound 0.000316 µM): 94%
viability, T/C (second compound 9.49 µM, first compound 0.001 µM): 94.8%
viability, T/C (second compound 9.49 µM, first compound 0.00316 µM): 102%
viability, T/C (second compound 9.49 µM, first compound 0.01 µM): 101%
viability, T/C (second compound 9.49 µM, first compound 0.0316 µM): 95.5%
viability, T/C (second compound 9.49 µM, first compound 0.1 µM): 79.9%
viability, T/C (second compound 30 µM, first compound 0.000316 µM): 79%
viability, T/C (second compound 30 µM, first compound 0.001 µM): 89.4%
viability, T/C (second compound 30 µM, first compound 0.00316 µM): 89.4%
viability, T/C (second compound 30 µM, first compound 0.01 µM): 88%
viability, T/C (second compound 30 µM, first compound 0.0316 µM): 84.5%
viability, T/C (second compound 30 µM, first compound 0.1 µM): 72.7%
